Tests used:
[1] = biological target: Muscarinic acetylcholine receptor M2 (Homo sapiens) (UniProt P08172); experiment: M2/HU Eurofins-Panlabs selectivity data (BI); settings: Compound concentration 10.0 uM
[2] = biological target: Glutamate receptor ionotropic, NMDA 1 (Rattus norvegicus) (UniProt P35439); experiment: NMDAGLSI/RA Eurofins-Panlabs selectivity data (BI); settings: Compound concentration 10.0 uM
[3] = biological target: Sigma non-opioid intracellular receptor 1 (Homo sapiens) (UniProt Q99720); experiment: SIGMA1/HU Eurofins-Panlabs selectivity data (BI); settings: Compound concentration 10.0 uM
[4] = biological target: Kappa-type opioid receptor (Homo sapiens) (UniProt P41145); experiment: KAPPA/HU Eurofins-Panlabs selectivity data (BI); settings: Compound concentration 10.0 uM
[5] = biological target: Neuropeptide Y receptor type 2 (Homo sapiens) (UniProt P49146); experiment: Y2/HU Eurofins-Panlabs selectivity data (BI); settings: Compound concentration 10.0 uM
[6] = biological target: Endothelin-1 receptor (Homo sapiens) (UniProt P25101); experiment: ETA/HU Eurofins-Panlabs selectivity data (BI); settings: Compound concentration 10.0 uM
[7] = biological target: Voltage-dependent L-type calcium channel subunit alpha-1C (DHP site) (Rattus norvegicus, UniProt P22002); experiment: CA+/DHPSI/RA Eurofins-Panlabs selectivity data (BI); settings: compound concentration 10 uM, read-out: % Ctrl
[8] = biological target: Thyroid hormone receptor alpha (Rattus norvegicus) (UniProt P63059); experiment: THYROID HORM Eurofins-Panlabs selectivity data (BI); settings: Compound concentration 10.0 uM
[9] = biological target: Voltage-dependent L-type calcium channel subunit alpha-1C (diltiazem site) (Rattus norvegicus, UniProt P22002); experiment: CA+/DILSI/RA Eurofins-Panlabs selectivity data (BI); settings: compound concentration 10 uM, read-out: % Ctrl
[10] = biological target: Glutamate receptor ionotropic, kainate 1 (Rattus norvegicus) (UniProt P22756); experiment: KAINATE/R Eurofins-Panlabs selectivity data (BI); settings: Compound concentration 10.0 uM
[11] = biological target: B2 bradykinin receptor (Homo sapiens) (UniProt P30411); experiment: B2/H Eurofins-Panlabs selectivity data (BI); settings: filed as antagonist, Compound concentration 10.0 uM
[12] = biological target: Melatonin receptor type 1A (Homo sapiens) (UniProt P48039); experiment: MT1/H Eurofins-Panlabs selectivity data (BI); settings: Compound concentration 10.0 uM
[13] = biological target: Histamine H3 receptor (Homo sapiens) (UniProt Q9Y5N1); experiment: H3/H Eurofins-Panlabs selectivity data (BI); settings: Compound concentration 10.0 uM
[14] = biological target: Nicotinic acetylcholine receptor alpha-1/beta-1 (Homo sapiens) (UniProt P02708+P11230); experiment: NACH_BS_N/H Eurofins-Panlabs selectivity data (BI); type: protein-complex assay; settings: Compound concentration 10.0 uM
[15] = biological target: Sodium- and chloride-dependent GABA transporter 1 (Rattus norvegicus) (UniProt P23978); experiment: GABATRANS/RA Eurofins-Panlabs selectivity data (BI); settings: Compound concentration 10.0 uM
[16] = biological target: Histamine H1 receptor (Homo sapiens) (UniProt P35367); experiment: H1/H Eurofins-Panlabs selectivity data (BI); settings: Compound concentration 10.0 uM
[17] = biological target: T1, 5-hydroxytryptamine receptor 3A (Homo sapiens) (UniProt P46098); experiment: 5HT3/HU Eurofins-Panlabs selectivity data (BI); settings: Compound concentration 10.0 uM
T1 sequence (whole entry): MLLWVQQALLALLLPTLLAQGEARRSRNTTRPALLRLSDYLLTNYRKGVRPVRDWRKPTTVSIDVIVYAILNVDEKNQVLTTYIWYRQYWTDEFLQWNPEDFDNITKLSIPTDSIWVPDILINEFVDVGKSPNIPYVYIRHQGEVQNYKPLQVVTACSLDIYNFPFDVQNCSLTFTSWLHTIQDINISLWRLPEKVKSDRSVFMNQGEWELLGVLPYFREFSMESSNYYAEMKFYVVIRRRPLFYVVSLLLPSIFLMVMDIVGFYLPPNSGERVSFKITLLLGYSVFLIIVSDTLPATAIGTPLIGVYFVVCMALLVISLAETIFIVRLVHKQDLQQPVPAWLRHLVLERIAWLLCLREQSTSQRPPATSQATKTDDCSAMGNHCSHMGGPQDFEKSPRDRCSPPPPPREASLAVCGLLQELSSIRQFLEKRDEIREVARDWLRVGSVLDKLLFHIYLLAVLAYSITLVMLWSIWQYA

[18] = biological target: Protein kinase C alpha type (Mus musculus) (UniProt P20444); experiment: PHORBOLE/M Eurofins-Panlabs selectivity data (BI); settings: Compound concentration 10.0 uM
[19] = biological target: D(3) dopamine receptor (Homo sapiens) (UniProt P35462); experiment: D3/HU Eurofins-Panlabs selectivity data (BI); settings: Compound concentration 10.0 uM
[20] = biological target: T2, Alpha-2A adrenergic receptor (Homo sapiens) (UniProt P08913); experiment: ALPHA2A/H Eurofins-Panlabs selectivity data (BI); settings: Compound concentration 10.0 uM
T2 sequence (whole entry): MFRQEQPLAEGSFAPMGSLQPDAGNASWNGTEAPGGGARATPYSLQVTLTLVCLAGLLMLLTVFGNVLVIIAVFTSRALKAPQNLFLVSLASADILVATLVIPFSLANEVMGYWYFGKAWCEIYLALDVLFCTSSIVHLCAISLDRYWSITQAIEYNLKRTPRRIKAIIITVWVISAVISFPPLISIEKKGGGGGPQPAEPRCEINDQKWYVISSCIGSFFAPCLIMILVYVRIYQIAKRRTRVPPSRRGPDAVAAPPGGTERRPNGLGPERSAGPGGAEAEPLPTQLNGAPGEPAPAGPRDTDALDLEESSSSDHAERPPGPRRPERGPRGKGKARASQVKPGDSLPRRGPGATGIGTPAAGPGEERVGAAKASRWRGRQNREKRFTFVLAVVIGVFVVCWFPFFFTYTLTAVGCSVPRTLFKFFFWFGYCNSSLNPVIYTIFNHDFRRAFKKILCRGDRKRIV

[21] = biological target: Mu-type opioid receptor (Homo sapiens) (UniProt P35372); experiment: MU/HU Eurofins-Panlabs selectivity data (BI); settings: Compound concentration 10.0 uM
[22] = biological target: Endothelin receptor type B (Homo sapiens) (UniProt P24530); experiment: ETB/HUM Eurofins-Panlabs selectivity data (BI); settings: Compound concentration 10.0 uM
[23] = biological target: Histamine H2 receptor (Homo sapiens) (UniProt P25021); experiment: H2/H Eurofins-Panlabs selectivity data (BI); settings: Compound concentration 10.0 uM
[24] = biological target: Glutamate NMDA receptor (Rattus norvegicus) (UniProt P35439+Q00959+Q00960+Q00961+Q62645+Q8VHN2+Q9R1M7); experiment: NMDAAGSI/RA Eurofins-Panlabs selectivity data (BI); type: protein-complex assay; settings: filed as agonist, Compound concentration 10.0 uM
[25] = biological target: Acetylcholine receptor subunit alpha (Homo sapiens) (UniProt P02708); experiment: NACH/H Eurofins-Panlabs selectivity data (BI); settings: Compound concentration 10.0 uM
[26] = biological target: Cannabinoid receptor 1 (Homo sapiens) (UniProt P21554); experiment: CB1 Eurofins-Panlabs selectivity data (BI); settings: Compound concentration 10.0 uM
[27] = biological target: Epidermal growth factor receptor (Homo sapiens) (UniProt P00533); experiment: EGF/HU Eurofins-Panlabs selectivity data (BI); settings: Compound concentration 10.0 uM
[28] = biological target: Myosin light chain kinase (Homo sapiens) (UniProt Q32MK0); settings: Compound concentration 1000.0 nM
[29] = biological target: Dual specificity mitogen-activated protein kinase kinase 4 (Homo sapiens) (UniProt P45985); settings: Compound concentration 1000.0 nM
[30] = biological target: Alpha-1B adrenergic receptor (Homo sapiens) (UniProt P35368); settings: Compound concentration 10.0 uM
[31] = tested on: Tyrosine-protein kinase ABL1 (Homo sapiens), P00519 [M351T]; settings: Compound concentration 1000.0 nM

Melatonin receptor type 1A (Homo sapiens), sequence (P48039 whole entry): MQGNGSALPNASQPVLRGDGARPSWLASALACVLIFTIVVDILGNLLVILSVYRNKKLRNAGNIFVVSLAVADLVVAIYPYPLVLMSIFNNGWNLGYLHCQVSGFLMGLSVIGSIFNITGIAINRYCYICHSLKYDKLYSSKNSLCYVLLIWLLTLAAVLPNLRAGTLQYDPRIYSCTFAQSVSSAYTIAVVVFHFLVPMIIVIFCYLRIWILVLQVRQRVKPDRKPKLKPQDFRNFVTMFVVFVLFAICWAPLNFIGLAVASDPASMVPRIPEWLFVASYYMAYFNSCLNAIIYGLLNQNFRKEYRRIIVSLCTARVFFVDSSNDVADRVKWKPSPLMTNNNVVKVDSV
Alpha-1B adrenergic receptor (Homo sapiens), sequence (P35368 whole entry): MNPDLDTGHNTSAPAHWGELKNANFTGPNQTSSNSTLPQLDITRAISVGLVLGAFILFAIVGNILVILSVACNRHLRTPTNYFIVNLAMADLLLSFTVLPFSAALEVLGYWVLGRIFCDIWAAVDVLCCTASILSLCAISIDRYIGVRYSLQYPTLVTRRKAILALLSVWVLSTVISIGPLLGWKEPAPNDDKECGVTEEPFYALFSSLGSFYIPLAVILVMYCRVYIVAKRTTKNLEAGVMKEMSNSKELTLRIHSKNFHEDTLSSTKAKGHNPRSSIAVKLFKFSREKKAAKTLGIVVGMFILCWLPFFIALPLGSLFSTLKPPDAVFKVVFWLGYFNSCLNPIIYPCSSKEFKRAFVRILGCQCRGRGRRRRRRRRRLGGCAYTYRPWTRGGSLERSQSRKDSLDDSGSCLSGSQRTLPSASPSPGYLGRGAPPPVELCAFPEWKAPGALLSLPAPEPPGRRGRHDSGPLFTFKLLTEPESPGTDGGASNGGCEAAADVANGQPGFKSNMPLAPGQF
D(3) dopamine receptor (Homo sapiens), sequence (P35462 whole entry): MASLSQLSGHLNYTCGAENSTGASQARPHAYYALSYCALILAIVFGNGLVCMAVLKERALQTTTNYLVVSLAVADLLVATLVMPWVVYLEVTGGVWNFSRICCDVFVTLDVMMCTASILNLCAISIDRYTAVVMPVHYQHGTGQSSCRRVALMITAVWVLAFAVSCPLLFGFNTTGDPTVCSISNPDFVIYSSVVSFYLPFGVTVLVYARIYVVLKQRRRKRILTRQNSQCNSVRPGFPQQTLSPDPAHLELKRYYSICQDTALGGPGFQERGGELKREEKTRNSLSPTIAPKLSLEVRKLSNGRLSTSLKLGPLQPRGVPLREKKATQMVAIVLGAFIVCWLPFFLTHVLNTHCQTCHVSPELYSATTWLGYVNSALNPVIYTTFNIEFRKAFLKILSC
Cannabinoid receptor 1 (Homo sapiens), sequence (P21554 whole entry): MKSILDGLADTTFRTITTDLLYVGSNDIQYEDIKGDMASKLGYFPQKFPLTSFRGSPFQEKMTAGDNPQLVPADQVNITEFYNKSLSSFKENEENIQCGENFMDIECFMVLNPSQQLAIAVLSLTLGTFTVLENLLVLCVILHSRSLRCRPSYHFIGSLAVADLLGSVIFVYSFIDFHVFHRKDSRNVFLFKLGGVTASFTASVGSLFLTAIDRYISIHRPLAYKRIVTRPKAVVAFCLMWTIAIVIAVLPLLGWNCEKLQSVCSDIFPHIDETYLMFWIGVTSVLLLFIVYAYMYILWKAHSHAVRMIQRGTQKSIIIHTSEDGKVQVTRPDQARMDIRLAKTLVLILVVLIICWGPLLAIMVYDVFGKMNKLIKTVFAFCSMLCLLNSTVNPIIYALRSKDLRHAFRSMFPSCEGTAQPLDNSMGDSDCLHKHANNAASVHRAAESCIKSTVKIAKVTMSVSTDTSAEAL
Endothelin receptor type B (Homo sapiens), sequence (P24530 whole entry): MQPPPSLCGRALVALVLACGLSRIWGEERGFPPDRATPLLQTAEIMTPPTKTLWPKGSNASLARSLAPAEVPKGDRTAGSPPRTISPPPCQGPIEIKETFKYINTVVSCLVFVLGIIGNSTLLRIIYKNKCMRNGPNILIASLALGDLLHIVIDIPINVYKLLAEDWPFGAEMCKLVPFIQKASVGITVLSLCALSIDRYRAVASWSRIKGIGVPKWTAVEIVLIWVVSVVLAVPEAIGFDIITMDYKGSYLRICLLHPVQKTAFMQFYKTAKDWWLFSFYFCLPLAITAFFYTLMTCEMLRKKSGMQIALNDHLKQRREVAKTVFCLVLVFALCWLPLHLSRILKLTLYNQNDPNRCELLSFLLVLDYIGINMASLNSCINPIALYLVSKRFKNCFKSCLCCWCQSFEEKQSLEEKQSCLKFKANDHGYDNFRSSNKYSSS
Myosin light chain kinase (Homo sapiens), sequence (Q32MK0 whole entry): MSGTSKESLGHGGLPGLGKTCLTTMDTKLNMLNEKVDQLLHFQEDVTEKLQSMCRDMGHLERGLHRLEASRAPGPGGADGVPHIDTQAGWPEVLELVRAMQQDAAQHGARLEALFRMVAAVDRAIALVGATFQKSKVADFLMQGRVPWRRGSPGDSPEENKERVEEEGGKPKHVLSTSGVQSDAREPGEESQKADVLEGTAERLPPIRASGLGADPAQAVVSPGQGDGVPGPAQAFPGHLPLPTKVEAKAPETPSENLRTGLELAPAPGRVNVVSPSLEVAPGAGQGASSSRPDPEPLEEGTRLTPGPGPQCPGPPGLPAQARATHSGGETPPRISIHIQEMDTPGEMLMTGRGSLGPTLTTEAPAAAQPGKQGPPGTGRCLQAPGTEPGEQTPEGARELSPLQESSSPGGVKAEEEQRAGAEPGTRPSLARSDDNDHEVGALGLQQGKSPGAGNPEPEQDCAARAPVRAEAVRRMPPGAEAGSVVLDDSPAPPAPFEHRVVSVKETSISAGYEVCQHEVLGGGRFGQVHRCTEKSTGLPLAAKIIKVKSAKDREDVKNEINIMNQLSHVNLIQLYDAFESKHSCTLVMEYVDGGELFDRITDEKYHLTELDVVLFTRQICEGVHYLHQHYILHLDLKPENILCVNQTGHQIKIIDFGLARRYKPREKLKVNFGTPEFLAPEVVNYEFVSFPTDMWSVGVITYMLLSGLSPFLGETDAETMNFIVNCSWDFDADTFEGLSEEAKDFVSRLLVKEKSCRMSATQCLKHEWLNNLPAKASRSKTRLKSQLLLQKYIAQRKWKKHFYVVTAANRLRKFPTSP
Histamine H1 receptor (Homo sapiens), sequence (P35367 whole entry): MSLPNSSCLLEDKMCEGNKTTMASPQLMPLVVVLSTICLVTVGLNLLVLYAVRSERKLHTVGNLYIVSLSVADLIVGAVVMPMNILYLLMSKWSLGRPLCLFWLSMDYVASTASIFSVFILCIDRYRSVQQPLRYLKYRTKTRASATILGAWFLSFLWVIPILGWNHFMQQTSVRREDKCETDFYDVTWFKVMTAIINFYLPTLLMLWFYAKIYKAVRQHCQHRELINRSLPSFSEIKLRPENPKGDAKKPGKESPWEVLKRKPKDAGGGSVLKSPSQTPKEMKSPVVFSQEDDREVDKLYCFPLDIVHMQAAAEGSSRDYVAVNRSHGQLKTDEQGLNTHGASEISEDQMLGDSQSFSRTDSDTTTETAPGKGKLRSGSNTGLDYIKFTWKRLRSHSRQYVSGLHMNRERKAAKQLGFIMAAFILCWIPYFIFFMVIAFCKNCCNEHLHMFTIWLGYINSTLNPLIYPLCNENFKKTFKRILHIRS
Endothelin-1 receptor (Homo sapiens), sequence (P25101 whole entry): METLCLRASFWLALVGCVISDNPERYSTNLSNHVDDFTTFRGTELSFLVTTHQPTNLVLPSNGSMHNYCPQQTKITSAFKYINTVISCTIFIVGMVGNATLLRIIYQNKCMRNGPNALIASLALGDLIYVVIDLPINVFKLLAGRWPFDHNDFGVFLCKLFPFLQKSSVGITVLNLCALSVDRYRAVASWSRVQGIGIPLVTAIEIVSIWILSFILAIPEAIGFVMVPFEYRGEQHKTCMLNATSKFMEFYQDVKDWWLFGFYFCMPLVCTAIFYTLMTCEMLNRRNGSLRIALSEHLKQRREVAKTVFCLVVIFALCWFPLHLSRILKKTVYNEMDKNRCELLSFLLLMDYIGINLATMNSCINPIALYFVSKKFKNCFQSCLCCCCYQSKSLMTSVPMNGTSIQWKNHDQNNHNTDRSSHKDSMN
Sigma non-opioid intracellular receptor 1 (Homo sapiens), sequence (Q99720 whole entry): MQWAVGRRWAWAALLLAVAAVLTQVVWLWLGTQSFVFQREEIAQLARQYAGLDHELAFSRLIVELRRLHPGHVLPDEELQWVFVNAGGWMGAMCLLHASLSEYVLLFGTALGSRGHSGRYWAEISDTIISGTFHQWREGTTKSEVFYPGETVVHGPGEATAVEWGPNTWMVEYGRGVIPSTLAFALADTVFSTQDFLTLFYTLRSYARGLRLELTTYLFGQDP
Neuropeptide Y receptor type 2 (Homo sapiens), sequence (P49146 whole entry): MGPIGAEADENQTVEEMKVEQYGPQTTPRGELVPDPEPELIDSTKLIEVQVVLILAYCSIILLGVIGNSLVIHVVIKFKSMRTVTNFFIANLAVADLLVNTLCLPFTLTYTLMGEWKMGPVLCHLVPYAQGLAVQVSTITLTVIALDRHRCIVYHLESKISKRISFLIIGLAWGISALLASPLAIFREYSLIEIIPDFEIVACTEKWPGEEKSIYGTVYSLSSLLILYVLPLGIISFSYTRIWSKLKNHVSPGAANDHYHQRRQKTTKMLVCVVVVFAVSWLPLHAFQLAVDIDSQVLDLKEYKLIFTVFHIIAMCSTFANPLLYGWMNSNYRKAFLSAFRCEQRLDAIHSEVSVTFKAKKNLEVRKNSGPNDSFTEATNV
Mu-type opioid receptor (Homo sapiens), sequence (P35372 whole entry): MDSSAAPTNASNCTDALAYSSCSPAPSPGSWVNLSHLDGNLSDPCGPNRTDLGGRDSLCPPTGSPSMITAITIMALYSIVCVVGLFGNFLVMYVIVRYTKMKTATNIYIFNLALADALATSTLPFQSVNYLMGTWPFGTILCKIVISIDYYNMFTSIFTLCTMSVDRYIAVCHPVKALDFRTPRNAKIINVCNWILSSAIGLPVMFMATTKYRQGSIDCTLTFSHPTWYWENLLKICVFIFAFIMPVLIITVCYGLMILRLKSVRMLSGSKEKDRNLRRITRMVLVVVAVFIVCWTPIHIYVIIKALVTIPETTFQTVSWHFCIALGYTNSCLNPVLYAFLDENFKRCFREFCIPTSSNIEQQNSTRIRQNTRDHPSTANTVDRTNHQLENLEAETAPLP

In the case of `CS(=O)(=O)c1cc(C2(NC(=O)c3cncc4c3cnn4-c3ccc(F)cc3)CC2)ccn1` [BI 639667], the residual activity [1] was 99%, the residual activity [2] was 96% and the residual activity [3] was 105%. It also gave a residual activity [4] of 101%, a residual activity [5] of 98% and a residual activity [6] of 97%. For the same compound, the activity at 10 µM [7] was 71% (not active), the residual activity [8] was 74% and the activity at 10 µM [9] was 58% (not active). The residual activity [10] was 91%, the residual activity [11] was 100% and the residual activity [12] was 79%. For the same compound, the residual activity [13] was 87%, the residual activity [14] was 100% and the residual activity [15] was 89%. The residual activity [16] was 100%, the residual activity [17] was 124% and the residual activity [18] was 93%. It also gave a residual activity [19] of 105%, a residual activity [20] of 79% and a residual activity [21] of 86%. It also gave a residual activity [22] of 97%, a residual activity [23] of 89% and a residual activity [24] of 86%. The residual activity [25] was 91%, the residual activity [26] was 72% and the residual activity [27] was 55%.
`CS(=O)(=O)NCC[C@H](NC(=O)c1cncc2c1cnn2-c1ccc(F)cc1)c1ccnc(S(C)(=O)=O)c1` [BI 9307] showed a residual activity [28] of 100%, a residual activity [29] of 100% and an inhibition [30] of 15.8%. The residual activity [31] was 100%.

Reference: ChEMBL document CHEMBL4507278 (2021)
